Measured values published in ChEMBL document CHEMBL1156829 (Proc Natl Acad Sci U S A, 2008).

Assays:
Plasmodium falciparum [1] = assay: NOVARTIS: Inhibition of Plasmodium falciparum 3D7 (drug-susceptible) proliferation in erythrocyte-based infection assay; assay type: functional, organism-based; settings: Plasmodium falciparum, 3D7
Plasmodium falciparum [2] = assay: NOVARTIS: Inhibition of Plasmodium falciparum W2 (drug-resistant) proliferation in erythrocyte-based infection assay; assay type: functional, organism-based; settings: Plasmodium falciparum, W2; read-out: EC50
[3] = NOVARTIS: Cytotoxicity against human hepatocellular carcinoma cell line (Huh7); assay type: toxicity, cell-based, Huh-7; settings: Huh7 cells (hepatocellular carcinoma cell line)

SMILES	EC50 (Plasmodium falciparum [1])	EC50 (Plasmodium falciparum [2])	CC50 [3]
Nc1nnc(CCSc2ccc(Cl)cc2)s1	175 nM	> 1250 nM	> 3710 nM
CC(C)=CCC/C(C)=C/CCC(C)NCCN1CCNCC1 (stereo unspecified)	> 1100 nM	911 nM	> 10000 nM
CCn1c(CSc2nc(C)cc(C)n2)nnc1SCC(N)=O	> 1250 nM	26.7 nM	> 10000 nM
O=C(O)CCCNC(=O)C(O)(c1ccccc1)c1ccccc1	> 12500 nM	1330 nM	> 100000 nM
COc1cccc(OC)c1C(=O)Nc1cc(C(F)(F)F)ccc1Cl	> 1250 nM	1810 nM	> 10000 nM
Nc1ccc(-c2cc(N)n(-c3ccc(Oc4ccccc4)c(S(=O)(=O)O)c3)n2)cc1	> 921 nM	> 1250 nM	> 10000 nM
O=C1N(c2ccccc2)C[C@@H]2C[C@@H](c3ccc4nsnc4c3)N3CCC[C@@]123	888 nM	641 nM	9250 nM
COc1ccc(/C=C/c2nc(=O)c3ccccc3o2)cc1	1240 nM	480 nM	> 10000 nM
O=C(C1CCN(c2nnnn2-c2ccccc2)CC1)N1CCc2ccccc2C1	1300 nM	1790 nM	> 100000 nM
CC(C)NCC(O)Cn1c2ccc(Cl)cc2c2cc(Cl)ccc21 (stereo unspecified)	183 nM	38.9 nM	4870 nM
O=C(Nc1ccc(-c2nc3ccccc3[nH]2)cc1)c1ccc(Cl)c(Cl)c1	523 nM	1820 nM	> 100000 nM
COc1ccc2[nH]c(SCC(=O)Nc3cccc(NC(=O)CSc4nc5cc(OC)ccc5[nH]4)n3)nc2c1	123 nM	95.4 nM	> 51000 nM
CCCC(=O)Oc1ccccc1-c1nc2ccccn2c1NC(C)(C)CC(C)(C)C	793 nM	44 nM	1960 nM
O=C(COC(=O)c1ccc2c(c1)C(=O)N(c1ccc3ccccc3c1)C2=O)c1ccc(Br)cc1	> 919 nM	> 1250 nM	> 10000 nM
COc1ccccc1N1CCN(c2ccc(NC(=O)/C=C/c3ccc([N+](=O)[O-])cc3)cc2C(=O)NCCCN(C)C)CC1	290 nM	121 nM	921 nM
CSCCC(C(=O)NCC(=O)O)N1C(=O)c2cc(NC(C)=O)ccc2NC(=O)[C@@H]1c1ccccc1 (stereo partly specified)	> 1250 nM	15.3 nM	> 7760 nM
Cc1cc(N2CCCC2)nc2ccc(NC(=S)NCCCN3CCc4ccccc4C3)cc12	263 nM	924 nM	19100 nM
C=C(C)[C@@]12O[C@@H]1[C@@]1(C)C(=CC2=O)CC[C@@H](O)[C@@H]1C	787 nM	586 nM	> 10000 nM
CCOc1cc(/C=C(\C#N)c2nc3ccccc3[nH]2)ccc1OCc1ccccc1C#N	> 1120 nM	214 nM	> 10000 nM
CNC1CC2OC(C)(C1OC)n1c3ccccc3c3c4c(c5c6ccccc6n2c5c31)C(=O)NC4O (stereo unspecified)	190 nM	> 195 nM	[…]
Cc1ccc2[nH]c3c(NCCN4CCCC4)ncnc3c2c1	514 nM	737 nM	46500 nM
OC(Cn1nnc2ccccc21)Cn1c2ccc(Br)cc2c2cc(Br)ccc21 (stereo unspecified)	3370 nM	1350 nM	> 78000 nM
COC(=O)[C@@H]1C[C@@H](NC(=O)c2ccc(OC)cc2OC)CN1C/C(C)=C/c1ccccc1	432 nM	821 nM	> 10000 nM
O=C(Cn1c2ccccc2c(=O)c2ccc(Cl)cc21)Nc1cccc(Cl)c1	934 nM	589 nM	> 10000 nM
O=C(c1ccco1)N1CCN(c2ccc([N+](=O)[O-])c(NC3CC3)c2)CC1	100 nM	44.5 nM	> 100000 nM
CCOC(=O)c1[nH]c(C)c(CNc2cccc(OC)c2)c1C	1510 nM	1200 nM	6980 nM
Cn1nccc1C(OCC(=O)N1CCOCC1)c1ccc(F)cc1 (stereo unspecified)	134 nM	89.2 nM	> 10000 nM
